Measured values: ChEMBL document CHEMBL4251653, “In vivo potent BM635 analogue with improved drug-like properties” (Eur J Med Chem, 2018)
In brackets after ≈: the same amount, converted by molar mass.

Columns and labels:
[1] = molecular target: Voltage-gated inwardly rectifying potassium channel KCNH2 (Homo sapiens, UniProt Q12809); assay: Inhibition of human ERG by [3H]dofetilide binding displacement assay
Mus musculus [2] = assay: Tlast in C57BL/6 mouse at 50 mg/kg, po after 1 to 24 hrs by LC-MS/MS method; format: ADME, organism-based; conditions: in vivo
Albumin = Albumin (Homo sapiens, UniProt P02768); assay: Binding affinity to human serum albumin; format: ADME; conditions: isolated protein
Sequence of Albumin (P02768 whole entry): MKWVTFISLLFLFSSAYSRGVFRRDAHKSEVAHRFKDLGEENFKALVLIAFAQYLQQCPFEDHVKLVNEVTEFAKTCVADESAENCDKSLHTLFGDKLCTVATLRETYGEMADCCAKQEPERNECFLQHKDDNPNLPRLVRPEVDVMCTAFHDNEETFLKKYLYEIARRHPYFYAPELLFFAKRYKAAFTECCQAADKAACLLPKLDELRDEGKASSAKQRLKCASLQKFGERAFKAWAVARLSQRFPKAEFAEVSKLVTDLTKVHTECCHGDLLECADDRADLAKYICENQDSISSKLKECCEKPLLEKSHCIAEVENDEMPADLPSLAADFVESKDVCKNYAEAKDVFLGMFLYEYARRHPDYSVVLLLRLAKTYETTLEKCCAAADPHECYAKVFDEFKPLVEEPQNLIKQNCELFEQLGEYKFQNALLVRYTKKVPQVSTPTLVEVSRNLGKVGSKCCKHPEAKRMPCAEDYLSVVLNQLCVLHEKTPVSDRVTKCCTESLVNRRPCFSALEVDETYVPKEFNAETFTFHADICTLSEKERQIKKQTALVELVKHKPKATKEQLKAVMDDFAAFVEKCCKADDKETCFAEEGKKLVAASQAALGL

HepG2 [3] = assay: Cytotoxicity against human HepG2 cells assessed as compound concentration causing changes in mitochondrial potential by Cell Health assay; format: cell-based
[4] = Volume of distribution at steady state in C57BL/6 mouse at 1 mg/kg, iv after 1 to 24 hrs by LC-MS/MS method; format: ADME, organism-based; conditions: in vivo, read-out: Vdss
[5] = Lipophilicity, log D of the compound at pH 7.4 by UV-HPLC method; format: physicochemical; conditions: buffer, read-out: logD
[6] = Permeability of the compound by artificial membrane permeability assay; format: ADME; conditions: PAMPA; read-out: permeability
[7] = Tmax in C57BL/6 mouse at 50 mg/kg, po after 1 to 24 hrs by LC-MS/MS method; format: ADME, organism-based; conditions: in vivo
[8] = Cmax in C57BL/6 mouse at 50 mg/kg, po after 1 to 24 hrs by LC-MS/MS method; format: ADME, organism-based; parameters: dose 50 mg/kg, route oral; conditions: in vivo
[9] = tested on: Mycobacterium tuberculosis; assay: microbe, parasite or virus in culture; conditions: 144 h
Description: Antitubercular activity against Mycobacterium tuberculosis after 6 days by resazurin-based fluorescence assay

in vitro = conditions: human, HepG2 cells
Description: Selectivity index, ratio of TC50 for human HepG2 cells to MIC for Mycobacterium tuberculosis

[10] = Cytotoxicity against human HepG2 cells incubated for 48 hrs by Cell-titer Glo assay; format: cell-based; conditions: read-out: TC50
[11] = tested on: Mycobacterium tuberculosis; assay: microbe, parasite or virus in culture; conditions: H37Rv, THP-1, 96 h
Description: Antitubercular activity against Mycobacterium tuberculosis H37Rv infected in human THP1 macrophages incubated for 4 days by luciferase reporter gene assay

[12] = Oral bioavailability in C57BL/6 mouse at 50 mg/kg after 1 to 24 hrs by LC-MS/MS method; format: ADME, organism-based; conditions: in vivo
HepG2 [13] = assay: Cytotoxicity against human HepG2 cells assessed as compound concentration causing changes in nuclear morphology by Cell Health assay; format: cell-based
HepG2 [14] = assay: Cytotoxicity against human HepG2 cells assessed as compound concentration causing changes in membrane permeability by Cell Health assay; format: cell-based
[15] = tested on: Mycobacterium tuberculosis; format: functional, H37Rv
Mus musculus [16] = assay: Dose normalized AUC (0 to infinity) in C57BL/6 mouse at 1 mg/kg, iv after 1 to 24 hrs by LC-MS/MS method; format: ADME, organism-based; conditions: in vivo
[17] = Kinetic solubility in pH 7.4 phosphate buffered saline incubated for 1 hr by chemiluminescent nitrogen detection method; format: physicochemical; conditions: read-out: Kinetic_solubility
[18] = Clearance in C57BL/6 mouse at 1 mg/kg, iv after 1 to 24 hrs by LC-MS/MS method; format: ADME, organism-based; conditions: in vivo
[19] = Solubility of the compound in FaSSIF at pH 6.5 incubated for 4 hrs by UPLC-MS method; format: physicochemical
[20] = AUC (0 to infinity) in C57BL/6 mouse at 1 mg/kg, iv after 1 to 24 hrs by LC-MS/MS method; format: ADME, organism-based; parameters: dose 1 mg/kg, time infinity, route intravenous; conditions: in vivo
[21] = Half life in C57BL/6 mouse at 1 mg/kg, iv after 1 to 24 hrs by LC-MS/MS method; format: ADME, organism-based; conditions: in vivo
[22] = Volume of distribution at steady state in C57BL/6 mouse at 4 mg/kg, iv after 1 to 24 hrs by LC-MS/MS method; format: ADME, organism-based; conditions: in vivo, read-out: Vdss
[23] = AUC (0 to infinity) in C57BL/6 mouse at 4 mg/kg, iv after 1 to 24 hrs by LC-MS/MS method; format: ADME, organism-based; parameters: dose 4 mg/kg, route intravenous, time infinity; conditions: in vivo
Mus musculus [24] = assay: Dose normalized AUC (0 to infinity) in C57BL/6 mouse at 4 mg/kg, iv after 1 to 24 hrs by LC-MS/MS method; format: ADME, organism-based; conditions: in vivo
[25] = Clearance in C57BL/6 mouse at 4 mg/kg, iv after 1 to 24 hrs by LC-MS/MS method; format: ADME, organism-based; conditions: in vivo
[26] = Half life in C57BL/6 mouse at 4 mg/kg, iv after 1 to 24 hrs by LC-MS/MS method; format: ADME, organism-based; conditions: in vivo
[27] = tested on: Mycobacterium tuberculosis; format: functional, H37Rv; remark: listed apart in the source

Sequence of Voltage-gated inwardly rectifying potassium channel KCNH2 (Q12809 whole entry): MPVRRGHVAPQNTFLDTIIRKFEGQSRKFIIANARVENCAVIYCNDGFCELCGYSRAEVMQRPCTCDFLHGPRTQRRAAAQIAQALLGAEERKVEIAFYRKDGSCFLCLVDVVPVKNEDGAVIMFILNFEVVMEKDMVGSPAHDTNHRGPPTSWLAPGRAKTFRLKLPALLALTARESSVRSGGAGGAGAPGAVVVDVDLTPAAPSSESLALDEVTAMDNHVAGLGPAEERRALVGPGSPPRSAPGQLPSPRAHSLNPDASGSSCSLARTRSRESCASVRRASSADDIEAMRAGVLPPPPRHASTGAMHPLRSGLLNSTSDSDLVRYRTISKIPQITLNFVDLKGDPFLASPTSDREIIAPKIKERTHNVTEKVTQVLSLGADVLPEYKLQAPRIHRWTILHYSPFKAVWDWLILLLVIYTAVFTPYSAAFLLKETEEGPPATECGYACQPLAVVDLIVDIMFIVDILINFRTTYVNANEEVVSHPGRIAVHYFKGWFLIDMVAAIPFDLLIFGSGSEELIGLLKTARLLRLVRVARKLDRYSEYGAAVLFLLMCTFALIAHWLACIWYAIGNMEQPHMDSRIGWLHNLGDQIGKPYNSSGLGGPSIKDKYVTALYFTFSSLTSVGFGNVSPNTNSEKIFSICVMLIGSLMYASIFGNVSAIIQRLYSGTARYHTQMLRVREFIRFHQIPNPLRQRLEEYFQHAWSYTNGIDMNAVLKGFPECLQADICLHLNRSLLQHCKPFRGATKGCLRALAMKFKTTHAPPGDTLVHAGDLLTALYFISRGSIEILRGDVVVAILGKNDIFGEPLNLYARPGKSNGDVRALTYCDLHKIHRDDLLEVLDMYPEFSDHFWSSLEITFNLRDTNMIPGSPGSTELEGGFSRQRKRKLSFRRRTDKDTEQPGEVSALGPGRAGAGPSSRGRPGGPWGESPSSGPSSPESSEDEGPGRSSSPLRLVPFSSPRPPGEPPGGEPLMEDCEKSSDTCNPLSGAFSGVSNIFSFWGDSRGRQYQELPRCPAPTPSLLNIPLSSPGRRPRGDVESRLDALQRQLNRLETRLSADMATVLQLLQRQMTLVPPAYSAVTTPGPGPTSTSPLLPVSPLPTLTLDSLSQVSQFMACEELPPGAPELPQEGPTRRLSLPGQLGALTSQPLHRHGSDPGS

Compound: Cc1c(CN2CCOCC2)cc(-c2ccc(C(C)C)cc2)n1C1CCCOC1 (centres undefined)
- IC50 [1]: 10 µM
- Tlast (Mus musculus [2]): 8 h
- Activity (Albumin): 92.85%
- Activity (HepG2 [3]): > 200 µM
- Vd [4]: 3.5 L/kg
- logD [5]: 6.86
- Papp [6]: 73 ×10⁻⁶ cm/s
- Tmax [7]: 54 min
- Cmax [8]: 548 ng/mL
- MIC [9]: 0.15 µM (≈ 0.0574 µg/mL)
- selectivity ratio (in vitro): 333
- CC50 at 48 h [10]: 50 µM
- IC50 [11]: 0.3 µM
- bioavailability [12]: 23%
- Activity (HepG2 [13]): > 200 µM
- Activity (HepG2 [14]): > 200 µM
- Activity [15]: 0.1 log10CFU
- AUC/dose (Mus musculus [16]): 138 ng·h/mL/mg/kg
- solubility kinetic at 1 h [17]: 241 µM (≈ 92.2 µg/mL)
- clearance [18]: 125 mL/min/kg
- solubility at 4 h [19]: 43 µg/mL (≈ 112 µM)
- AUC(0-inf) [20]: 138 ng·h/mL
- half-life [21]: 24 min

Compound: Cc1c(CN2CCOCC2)cc(-c2ccc(C(C)C)cc2)n1C(C)C
- Vd [22]: 1.8 L/kg
- AUC(0-inf) [23]: 4020 ng·h/mL
- Tlast (Mus musculus [2]): 7.3 h
- Activity (Albumin): 94.11%
- Activity (HepG2 [3]): 32 µM
- logD [5]: 7.68
- Papp [6]: 72 ×10⁻⁶ cm/s
- Tmax [7]: 42 min
- AUC/dose (Mus musculus [24]): 1006 ng·h/mL/mg/kg
- Cmax [8]: 177 ng/mL
- MIC [9]: 0.15 µM (≈ 0.0511 µg/mL)
- CC50 at 48 h [10]: 20 µM
- clearance [25]: 16.9 mL/min/kg
- bioavailability [12]: 1.2%
- half-life [26]: 102 min
- Activity (HepG2 [13]): 25 µM
- Activity (HepG2 [14]): 32 µM
- Activity [15]: 1.5 log10CFU
- solubility kinetic at 1 h [17]: 199 µM (≈ 67.8 µg/mL)
- solubility at 4 h [19]: 249 µg/mL (≈ 731 µM)

Compound: COc1c(N2C[C@@H]3CCCN[C@@H]3C2)c(F)cc2c(=O)c(C(=O)O)cn(C3CC3)c12 [MOXIFLOXACIN]
- Activity [27]: 3.1 log10CFU
